From ChEMBL document CHEMBL4602687, “Dual Binding to Orthosteric and Allosteric Sites Enhances the Anticancer Activity of a TRAP1-Targeting Drug” (J Med Chem, 2020)
Changes are numbered by the printed parent chain. Calls of active or inactive are those of the source.

Tests used:
[1] = molecular target: T1, Heat shock protein 75 kDa, mitochondrial (Homo sapiens) (UniProt Q12931); test: Inhibition of TRAP1 in human PC3 cells assessed as reduction in ATP concentration at 10 uM measured after 2 hrs; assay type: cell-based; conditions: PC-3
T1 sequence (whole entry): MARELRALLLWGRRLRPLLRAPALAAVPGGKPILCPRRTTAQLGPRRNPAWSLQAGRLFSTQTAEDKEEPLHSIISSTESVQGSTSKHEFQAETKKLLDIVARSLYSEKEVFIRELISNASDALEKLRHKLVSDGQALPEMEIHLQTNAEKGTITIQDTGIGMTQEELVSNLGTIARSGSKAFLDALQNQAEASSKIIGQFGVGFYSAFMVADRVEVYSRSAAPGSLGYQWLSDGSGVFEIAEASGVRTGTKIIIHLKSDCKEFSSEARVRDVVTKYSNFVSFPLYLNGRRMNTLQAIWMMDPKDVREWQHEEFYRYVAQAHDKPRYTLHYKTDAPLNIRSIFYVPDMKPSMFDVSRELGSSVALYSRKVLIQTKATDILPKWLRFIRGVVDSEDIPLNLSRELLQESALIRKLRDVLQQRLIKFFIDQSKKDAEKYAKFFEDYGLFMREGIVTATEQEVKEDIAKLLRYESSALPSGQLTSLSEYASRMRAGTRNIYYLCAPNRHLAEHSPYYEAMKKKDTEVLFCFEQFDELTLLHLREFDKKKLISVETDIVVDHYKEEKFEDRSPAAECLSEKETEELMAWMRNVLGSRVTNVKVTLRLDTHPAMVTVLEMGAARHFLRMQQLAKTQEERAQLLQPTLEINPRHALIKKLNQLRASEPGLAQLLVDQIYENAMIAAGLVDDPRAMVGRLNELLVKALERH

[2] = molecular target: T1, Heat shock protein 75 kDa, mitochondrial (Homo sapiens); test: Inhibition of TRAP1 in human PC3 cells assessed as loss of mitochondrial membrane potential at 10 uM measured after 2 hrs by TMRM dye based flow cytometry; assay type: cell-based; conditions: PC-3
Homo sapiens = species: Homo sapiens; test: Inhibition of recombinant full-length human TRAP1 W585/W4F mutant expressed in Escherichia coli BL21 (DE3) assessed as intrinsic fluorescence quenching of tryptophan residues at 10 uM measured after 1 hr by fluorescence spectrophotometric method
NCI-H460 = test: Antitumor activity against human NCI-H460 cells xenografted in nude mouse assessed as tumor growth inhibition at 5 mg/kg, ip administered daily; assay type: functional, organism-based
Mus musculus [3] = test: In vivo inhibition of TRAP1 in nude mouse xenografted with human NCI-H460 cells assessed as increase in AMPK phosphorylation at 5 mg/kg, ip administered daily by Western blot analysis; assay type: functional, organism-based
PC-3 = test: Cytotoxicity against human PC3 cells assessed as reduction in cell viability up to 3 uM measured after 24 hrs by MTT assay; assay type: functional, cell-based
Mus musculus [4] = test: In vivo inhibition of TRAP1 in nude mouse xenografted with human NCI-H460 cells assessed as increase in SDHB degradation at 5 mg/kg, ip administered daily by Western blot analysis; assay type: functional, organism-based
[5] = tested on: T2, Heat shock protein 75 kDa, mitochondrial (Homo sapiens), Q12931 [R114E]; test: Stimulation of recombinant […] human TRAP1 R114E mutant ATPase activity expressed in Escherichia coli BL21 (DE3) up to 20 uM preincubated for 0.5 hrs followed by ATP addition and measured after 3 hrs by PiColorLock Gold reagent based colorimetric assay
T2 sequence (whole entry): T1 sequence (whole entry) with R114E

[6] = tested on: T3, Heat shock protein 75 kDa, mitochondrial (Homo sapiens), Q12931 [R402Q]; test: Stimulation of recombinant […] human TRAP1 R402Q mutant ATPase activity expressed in Escherichia coli BL21 (DE3) up to 20 uM preincubated for 0.5 hrs followed by ATP addition and measured after 3 hrs by PiColorLock Gold reagent based colorimetric assay
T3 sequence (whole entry): T1 sequence (whole entry) with R402Q

Nc1ncnc2c1nc(Sc1cc3c(cc1I)OCO3)n2CCCCCCCCCC[P+](c1ccccc1)(c1ccccc1)c1ccccc1
active: inhibition [1] | inhibition [2] | inhibition (Homo sapiens) | TGI (NCI-H460) | inhibition (Mus musculus [3]) | Activity (PC-3) | inhibition (Mus musculus [4]) | Activity [5] | Activity [6]
